Reference: paper PMC5716991, “The anthelmintic praziquantel is a human serotoninergic G-protein-coupled receptor ligand” (Nature Communications, 2017)

Biological target: T1, 5-HT2B receptor (Homo sapiens, UniProt P41595)
T1 construct: gene HTR2B
Assay: [3H]-LSD radioligand displacement at […] (PDSP primary screen); partial agonist in Ca2+ flux
Type: binding

T1 sequence (P41595 whole entry): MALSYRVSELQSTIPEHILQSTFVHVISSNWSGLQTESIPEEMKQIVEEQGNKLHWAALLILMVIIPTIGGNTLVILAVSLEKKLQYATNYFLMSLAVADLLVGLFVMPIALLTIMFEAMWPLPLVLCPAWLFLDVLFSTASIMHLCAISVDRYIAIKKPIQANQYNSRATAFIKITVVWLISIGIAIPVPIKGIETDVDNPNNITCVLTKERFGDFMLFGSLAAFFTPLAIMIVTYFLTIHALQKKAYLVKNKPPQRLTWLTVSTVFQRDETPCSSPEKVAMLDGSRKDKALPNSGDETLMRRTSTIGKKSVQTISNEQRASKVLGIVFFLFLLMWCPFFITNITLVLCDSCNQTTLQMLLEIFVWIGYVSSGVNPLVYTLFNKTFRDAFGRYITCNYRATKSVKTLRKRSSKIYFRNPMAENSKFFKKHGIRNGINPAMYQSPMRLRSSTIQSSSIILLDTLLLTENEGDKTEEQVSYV

O=C(C1CCCCC1)N1CC(=O)N2CCc3ccccc3[C@@H]2C1 [(R)-PZQ]
[3H]-LSD radioligand displacement at 5 μM (PDSP primary screen); partial agonist: the human 5-HT2B receptor (5-HT2BR)—where inhibition seen with (±)-PZQ was attributable solely to (R)-PZQ
